Test results reported in patent publication US20120009164A1, “Increasing Probiotic Growth Rate and Activity Using Prebiotic Composition” (MASTER SUPPLEMENTS, INC., priority 2010, published 2012).

Key:
[1] = test system: THERALAC® Lot # 32310A probiotic strains; experiment: Growth of the commercial probiotic Theralac in MRS broth (Example 10); format: cell-based, Lactobacillus and Bifidobacterium strains; settings: for Lactic Acid % / pH / NTU (Turbidity): additive 0.1% in MRS (polysorbate 80 control: 1.0 g per liter); for NTU (Turbidity): inoculated at 0.1% with THERALAC
Experimental: MRS broth was prepared with (for controls) and without (for tests) polysorbate 80 and filled into 1 liter screw cap flasks at 500 ml each and autoclaved at 121° C. for 30 minutes. Various lecithin and/or oleic acid additives, or nothing (negative control), was added to the tests flasks prior to autoclaving. The flasks were then tempered to 37° C. in a water bath and inoculated at 0.1% with […]® Lot # 32310A, a commercial probiotic product (Master Supplements, Inc., Victoria, Minn.). Capsules of […]® were opened and the contents mixed aseptically to serve as the inoculum source. At an inoculation rate of 0.1%, approximately 80 million CFU was added per ml of MRS media. […]® contains (formulation strength) the following probiotic strains at the approximate CFU values listed per gram: Lactobacillus acidophilus NCFM (LA-1): 30 billion CFU Bifidobacterium lactis Bl-04 (BL-34): 30 billion CFU Lactobacillus paracasei Lpc-37 (F-19): 14 billion CFU Lactobacillus rhamnosus Lr-32 (LR-44): 6 billion CFU Bifidobacterium lactis Bi-07: 8 billion CFU Turbidity, pH and titrations (made with 0.1 N NaOH and reported as % lactic acid) were made at various times up to 23 hours. The results are presented below in Table VI for the 12 and 23-hour analyses.

[2] = test system: Lactobacillus rhamnosus Lr-32 (LR-44); experiment: Growth (turbidity) and lactic acid producing activity in MRS broth, L. rhamnosus Lr-32; format: cell-based; settings: for Lactic Acid % / NTU (Turbidity) / pH: additive 0.1% in MRS (polysorbate 80 control: 1.0 g per liter)
Experimental: (§1) Prebiotic formulations are often probiotic strain dependent. Some Lactobacillus strains, for example, respond best to a form of lecithin derived from sunflowers (Sunflower Lecithin) while others show no preference to lecithin type and respond equally well to soy lecithin. Other strains show a synergistic response when lecithin is used together with oleic acid. […] Each flask was tempered to 37° C. and aseptically inoculated with 0.14 gm of the individual probiotic strains (in Examples 5 to 10 below) to be tested. At specified time intervals, a 30 ml sample from each flask was aseptically transferred into a HACH […] Turbidimeter sample cell. The turbidity of each sample was read and the results were reported in NTU's. The same 30 ml sample used for the turbidity reading was transferred into a 250 ml glass beaker, and the pH was recorded. The sample was titrated using 0.1N NaOH to an endpoint of pH 6.8, and the quantity of NaOH used was recorded. The % Lactic Acid was calculated using the following formula: % Lactic Acid=((mls of 0.1N NaOH)×(0.1N)×(90 gm/mole)×(1 L/1000 ml))×100 mls of sample % Lactic Acid=(mls of 0.1N NaOH)×(0.9) (Results reported at 12 hours and 23 hours like: 12/23 in Table IV below)

[3] = test system: Lactobacillus paracasei Lpc-37 (F-19); experiment: Growth (turbidity) and lactic acid producing activity in MRS broth, L. paracasei Lpc-37; format: cell-based; settings: for Lactic Acid % / NTU (Turbidity) / pH: additive 0.1% in MRS (polysorbate 80 control: 1.0 g per liter)
Experimental: as §1, with “III” for “IV”

[4] = test system: L. acidophilus NCFM (LA-1); experiment: Growth (turbidity) and lactic acid producing activity in MRS broth, L. acidophilus NCFM; format: cell-based, Lactobacillus acidophilus
Experimental: Prebiotic formulations are often probiotic strain dependent. […] At specified time intervals, a 30 ml sample from each flask was aseptically transferred into a HACH […] Turbidimeter sample cell. The turbidity of each sample was read and the results were reported in NTU's. The same 30 ml sample used for the turbidity reading was transferred into a 250 ml glass beaker, and the pH was recorded. The sample was titrated using 0.1N NaOH to an endpoint of pH 6.8, and the quantity of NaOH used was recorded. The % Lactic Acid was calculated using the following formula: % Lactic Acid=((mls of 0.1N NaOH)×(0.1N)×(90 gm/mole)×(1 L/1000 ml))×100 mls of sample % Lactic Acid=(mls of 0.1N NaOH)×(0.9) (Results reported at 12 hours and 23 hours like: 12/23 in Table I below)

[5] = test system: Lactobacillus salivarius Ls-33 (LS-30); experiment: Growth (turbidity) and lactic acid producing activity in MRS broth, L. salivarius Ls-33; format: cell-based; settings: for Lactic Acid % / NTU (Turbidity) / pH: additive 0.1% in MRS (polysorbate 80 control: 1.0 g per liter)
Experimental: as §1, with “V” for “IV”

[6] = test system: Bifidobacterium lactis Bl-04 (BL-34); experiment: Growth (turbidity) and lactic acid producing activity in MRS broth, B. lactis Bl-04; format: cell-based; settings: additive 0.1% in MRS (polysorbate 80 control: 1.0 g per liter)
Experimental: as §1, with “II” for “IV”

[7] = at the concentrations studied (0.1% + 0.1%)
[8] = additive 0.025% in MRS, 12 hours
[9] = additive 0.025% in MRS, 23 hours
[10] = additive 0.1% in MRS (polysorbate 80 control: 1.0 g per liter), 37° C., 12 hours
[11] = additive 0.1% in MRS (polysorbate 80 control: 1.0 g per liter), 37° C., 23 hours
[12] = additive 0.1% in MRS (polysorbate 80 control: 1.0 g per liter), 12 hours
[13] = additive 0.1% in MRS (polysorbate 80 control: 1.0 g per liter), 23 hours

In the case of `CCCCCCCC/C=C\CCCCCCCC(=O)O` [Oleic Acid, oleic acid], the “effectiveness as polysorbate 80 replacement (conclusion)” value (shortened to “effectiveness”) ([1]; 0.1% inclusion rate in MRS) is reported as “acceptable replacement value”, the “Lactic Acid %” value ([1]; 12 hours) is reported as 1.18% and the pH ([1]; 12 hours) is reported as 4.1. For the same molecule, the “Lactic Acid %” value ([1]; 23 hours) was 1.72%, the pH ([1]; 23 hours) was 3.8 and the “NTU (Turbidity)” value ([1]; 12 hours) was 2775 NTU. For the same molecule, the “NTU (Turbidity)” value ([1]; 23 hours) was 3529 NTU, the lag phase ([2]; 0.1% in MRS, at 12 hours) was “significant lag phase” and the “effectiveness” value ([2]; 0.1% inclusion rate in MRS) was “not as good a replacement for polysorbate 80 as sunflower lecithin”. The “Lactic Acid %” value ([2]; 12 hours) was 0.072%, the “NTU (Turbidity)” value ([2]; 12 hours) was −30.9 NTU and the pH ([2]; 12 hours) was 6.2. For the same molecule, the “Lactic Acid %” value ([2]; 23 hours) was 1.05%, the “NTU (Turbidity)” value ([2]; 23 hours) was 2644 NTU and the pH ([2]; 23 hours) was 4.1. For the same molecule, the “synergy of oleic acid with sunflower lecithin (conclusion)” value [2, 7] was “not synergistic”, the “effectiveness” value ([3]; 0.1% inclusion rate in MRS) was “not as effective a replacement for polysorbate 80 as sunflower lecithin” and the “Lactic Acid %” value ([3]; 12 hours) was 0.33%. For the same molecule, the “NTU (Turbidity)” value ([3]; 12 hours) was 178 NTU, the pH ([3]; 12 hours) was 5.1 and the “Lactic Acid %” value ([3]; 23 hours) was 1.01%. The “NTU (Turbidity)” value ([3]; 23 hours) was 1789 NTU, the pH ([3]; 23 hours) was 4.1 and the “synergy of oleic acid with sunflower lecithin (conclusion)” value [3, 7] was “does not appear to be synergistic”. The “effectiveness” value ([4]; 0.1% inclusion rate in MRS) was “somewhat effective”, the “Lactic Acid %” value [4, 8] was 0.70% and the pH [4, 8] was 4.5. For the same molecule, the “Lactic Acid %” value [4, 9] was 0.77%, the “NTU (Turbidity)” value [4, 9] was 603 NTU and the pH [4, 9] was 4.4. For the same molecule, the “NTU (Turbidity)” value [4, 10] was 1451 NTU, the “NTU (Turbidity)” value [4, 11] was 1789 NTU and the “Lactic Acid %” value [4, 12] was 1.03%. For the same molecule, the pH [4, 12] was 4.3, the “Lactic Acid %” value [4, 13] was 1.21% and the pH [4, 13] was 4.1. For the same molecule, the lag phase ([5]; 0.1% in MRS, at 12 hours) was “a lag phase is apparent”, the “effectiveness” value ([5]; 0.1% inclusion rate in MRS) was “not as good a replacement” and the “Lactic Acid %” value ([5]; 12 hours) was 0.073%. For the same molecule, the “NTU (Turbidity)” value ([5]; 12 hours) was 1440 NTU, the pH ([5]; 12 hours) was 4.4 and the “Lactic Acid %” value ([5]; 23 hours) was 1.51%. For the same molecule, the “NTU (Turbidity)” value ([5]; 23 hours) was 3578 NTU and the pH ([5]; 23 hours) was 3.8.
polysorbate 80 [reference compound] was tested, and the “Lactic Acid %” value ([1]; 12 hours) was 1.42%, the pH ([1]; 12 hours) was 3.9 and the “Lactic Acid %” value ([1]; 23 hours) was 1.84%. For the same molecule, the pH ([1]; 23 hours) was 3.7, the “NTU (Turbidity)” value ([1]; 12 hours) was 3311 NTU and the “NTU (Turbidity)” value ([1]; 23 hours) was 3694 NTU. For the same molecule, the “Lactic Acid %” value ([2]; 12 hours) was 1.12%, the “NTU (Turbidity)” value ([2]; 12 hours) was 2804 NTU and the pH ([2]; 12 hours) was 4.0. The “Lactic Acid %” value ([2]; 23 hours) was 1.67%, the “NTU (Turbidity)” value ([2]; 23 hours) was 3776 NTU and the pH ([2]; 23 hours) was 3.7. For the same molecule, the “Lactic Acid %” value ([3]; 12 hours) was 0.99%, the “NTU (Turbidity)” value ([3]; 12 hours) was 1664 NTU and the pH ([3]; 12 hours) was 4.2. The “Lactic Acid %” value ([3]; 23 hours) was 1.39%, the “NTU (Turbidity)” value ([3]; 23 hours) was 2824 NTU and the pH ([3]; 23 hours) was 3.9. For the same molecule, the “Lactic Acid %” value ([6]; 12 hours) was 0.57%, the “NTU (Turbidity)” value ([6]; 12 hours) was 922 NTU and the pH ([6]; 12 hours) was 4.8. For the same molecule, the “Lactic Acid %” value ([6]; 23 hours) was 0.84%, the “NTU (Turbidity)” value ([6]; 23 hours) was 1434 NTU and the pH ([6]; 23 hours) was 4.5. The “NTU (Turbidity)” value [4, 10] was 1855 NTU, the “NTU (Turbidity)” value [4, 11] was 2038 NTU and the “Lactic Acid %” value [4, 12] was 1.09%. For the same molecule, the pH [4, 12] was 4.2, the “Lactic Acid %” value [4, 13] was 1.27% and the pH [4, 13] was 4.1. The “Lactic Acid %” value ([5]; 12 hours) was 1.42%, the “NTU (Turbidity)” value ([5]; 12 hours) was 3426 NTU and the pH ([5]; 12 hours) was 3.8. The “Lactic Acid %” value ([5]; 23 hours) was 1.68%, the “NTU (Turbidity)” value ([5]; 23 hours) was 3931 NTU and the pH ([5]; 23 hours) was 3.7.
